Source: patent publication US11532406B2, “High specific activity preparation of F-18 tetrafluoroborate” (Mayo Foundation for Medical Education and Research, priority 2016, dated 2022)

Experiments:
[1] = Stability of ^18F-TFB (radio-TLC and anion chromatography HPLC); type: physicochemical; conditions: NaBF4 stock solution stored for 7 month at room temperature
Description: The product ^18F-TFB was analyzed for radiochemical purity by both radio-TLC (MeOH, Rf=0.8-0.85) and anion chromatography HPLC with radioactivity detector (Dionex IC-2100, AS19 analytical column: 4.7×150 mm; eluent: 35 mM KOH; sample volume: 25.L; flow rate: 1 mL/min; retention times: 7.6 min for ^18F-TFB, […]). Chemical purity and specific activity were analyzed by anion chromatography HPLC (retention times: 3.5 min for fluoride, 4.3 min for chloride, and 7.6 min for BF4—). Residual organic solvents were analyzed by GC (helium carrier gas flow at 10 cc/min through a MXTWAX column (Restek, Bellefonte, Pa., 0.53 mm ID, 30 m length)).
After the synthesis, a sample was diluted with water for the analysis. With the eluent of methanol on silica gel plate, purities of >98% were obtained on the radio-TLC scanner.
^18F-TFB was prepared and formulated in sterile 0.9% NaCl under cGMP conditions as previously described (12). Decay-corrected radiochemical yields of 32±2% and radiochemical purities (RCPs) >98% were obtained. Specific radioactivity of 2.2±0.9 GBq/μmol was achieved from starting ^18F-fluoride radioactivity of 20-31 GBq. In vitro RCP remained >96% up to 8 h at room temperature.

[2] = tested on: NIS; conditions: reference (21); read-out: IC50 for inhibition of iodine uptake by NIS in thyroid; cited from earlier work

| TFB decayed (HPLC) [1] [%] | Structure (SMILES) | IC50 [2] [nM] |
| --- | --- | --- |
| 50 | F[B-](F)(F)F.[Na+] [NaBF4, reference compound] |  |
|  | F[B-](F)(F)F [TFB, tetrafluoroborate] | 100 to 1000 |
